Residues, ends and D or L forms follow the SMILES beside them. *: point of attachment. Cbz = O=C(OCc1ccccc1)*; CH2F = FC*
Key:
RelA^−/− MEFs = experiment: Survival assay, TNF-α and CHX, RelA^−/− MEFs; format: cell-based, mouse; conditions: CHX 0.1 μg/ml
cathepsin B = target: T1, cathepsin B (Mus musculus, UniProt P10605); experiment: Cathepsin B activity in crude cytoplasmic extracts, RelA^−/− MEFs; format: cell-based
T1 construct: endogenous in cells; host or cells: RelA-/- or RelA+/+ MEFs (retrovirally transduced with GFP, RelA, Spi2A or antisense Spi2A)
Method: Survival Assays. Although RelA^−/− MEFs are markedly more sensitive to TNF-α compared to RelA^+/+ MEFs, low levels of CHX (0.1 μg/ml) were used in the survival assays. This was to suppress any protective activity of constitutively active non-RelA NF-κB molecules that are present in RelA^−/− MEFs (FIG. 4). Thus, RelA^−/− MEFs were treated with CHX and TNF-α (R&D) and the number of live GFP-positive adherent cells was counted by flow cytometry after 16 h, if not indicated otherwise. Live cells were defined as those that excluded propidium iodide (PI-negative) and had the appropriate size, as defined by forward and side scatter characteristics (Coligan et al., 1995). For RelA^+/+ MEFs, TNF-α-cytotoxicity was determined after 16 h with CHX (10 μg/ml), if not indicated otherwise. Cathepsin B activity was inhibited by a 1 h pre-treatment of MEFs with CA-074 Me (30 μM) (Peptide Institute). […] RelA^−/− MEFs were treated with (10-50 μM) sphingosine (Calbiochem) and the number of live GFP-positive adherent cells was counted by flow cytometry after 2 h.
Death effector assays. Death effector pathways were induced in […] MEFs by treatment TNF-α (0.2 ng/ml) and CHX (0.1 μg/ml). […] Protein concentration was determined by Lowry assay (DC-protein assay kit, Biorad). […]
Colorimetric assays for capases were performed in reaction buffer (50 mM HEPES, pH 7.4, 100 mM NaCl, 10 mM DTT, 1 mM EDTA, 10% glycerol, 0.1% CHAPS) at 37° C. on crude cytoplasmic extracts using p-Nitoaniline (pNA)-labeled substrates (Calbiochem) specific for caspases 3 and 7 (Ac-DEVD-pNA), caspase 8 (Ac-IETD-pNA), caspase 9 (Ac-LEHD-pNA), each at 0.2 mM. Specific activity was determined by subtracting the apparent activity detected after 1 h pre-incubation of extract with the pan-caspase inhibitor Z-VAD.fmk at 50 μM (ICN Biomedicals Inc), then normalizing for the amount of protein. […] Specific activity was determined by subtracting the apparent activity detected after 30 min pre-incubation of extract at 37° C. with the cathespin B inhibitor CA-074 Me at 30 μM (Peptide Institute) then normalizing for the amount of protein.

caspase activity = experiment: Caspase activity enzyme assay, NIH3T3 cells; format: cell-based; conditions: Z-VAD.fmk 50 μM, 1 h pre-treatment; verified by enzyme assay
Method: (§1) TNF-α death assays. NIH3T3 cells were transduced with MIGR1 retrovirus (Zhang and Ren, 1998) encoding either GFP alone, or Spi2A in the forward (sense) or reverse (antisense) orientation and stable clones generated, as described previously (Liu et al., 2003). Cells were treated with TNF-α (R&D) and after 16 h the number of live GFP-positive adherent cells were counted by flow cytometry (Liu et al., 2003). Live cells were defined as those that excluded propidium iodide (PI-negative) and had the appropriate size, as defined by forward and side light scatter characteristics. Caspase activity was inhibited by pre-treatment of cells or extracts for 1 h with Z-VAD.fmk (ICN Biomedicals Inc; 50 μM). […] In anti-sense experiments the level of Spi2A mRNA was quantitated by real-time PCR using primers and probes specific for Spi2A (Inglis et al., 1991) and cyclofilin A control mRNA (Medhurst et al., 2000), 4 h after treatment with Z-VAD.fmk ([…]) and TNF-α (10 ng/ml), as described previously (Liu et al., 2003).

NIH3T3 cells = experiment: TNF-α death assays, NIH3T3 cells; format: cell-based; conditions: Z-VAD.fmk 50 μM, TNF-α 10 ng/ml, 16 h; FIG. 9A
Method: as §1

T1 sequence (P10605 80-333): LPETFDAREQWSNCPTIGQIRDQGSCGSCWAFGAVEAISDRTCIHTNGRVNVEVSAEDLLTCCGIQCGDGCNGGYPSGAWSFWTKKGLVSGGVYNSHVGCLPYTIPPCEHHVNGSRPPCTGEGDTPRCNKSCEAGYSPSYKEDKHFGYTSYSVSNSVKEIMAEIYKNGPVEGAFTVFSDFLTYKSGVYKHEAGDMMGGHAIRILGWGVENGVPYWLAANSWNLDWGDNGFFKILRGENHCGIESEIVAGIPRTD

CCCNC(=O)[C@H]1O[C@@H]1C(=O)N[C@H](C(=O)N1CCC[C@H]1C(=O)OC)[C@@H](C)CC [CA-074 Me, reference compound]
Protection from TNF-α-induced death (percentage survival) (RelA^−/− MEFs; CA-074 Me 30 μM, TNF-α 0.5 ng/ml, FIG. 1A): protected | Inhibition of cathepsin B activity in MEFs (cathepsin B; CA-074 Me 30 μM, 1 h pre-treatment, verified by enzyme assay): complete inhibition

COC(=O)C[C@H](NC(=O)[C@H](C)NC(=O)[C@@H](NC(=O)OCc1ccccc1)C(C)C)C(=O)CF [Z-VAD.fmk, reference compound] (Cbz-Val-Ala-Asp(OMe)-CH2F)
Inhibition of caspase activity (caspase activity): complete inhibition | Sensitization to PCD by TNF-α (percentage survival) (NIH3T3 cells): sensitized

RelA: human RelA (p65) cDNA expressed from MIGR1 retrovirus in RelA^−/− MEFs [reference compound]
Percentage survival after TNF-α and CHX, retrovirally transduced cells vs GFP (RelA^−/− MEFs; 16 h, FIG. 1B, 2B): complete protection | Cytosolic cathepsin B activity after TNF-α, retrovirally transduced cells (cathepsin B; TNF-α 0.2 ng/ml, CHX 0.1 μg/ml, FIG. 1C, 7A): extinguished
